# Results: patent publication US9119805B2, “Therapy and prevention of problem drinking” (THE UNIVERSITY OF SYDNEY, priority 2009, dated 2015)
# “Also recorded” adds a separate entry of the source.
# What was measured:
# [1] = test system: alcohol-dependent adults and non-dependent problem drinkers; test: Human Study 2: intranasal oxytocin, alcohol self-administration; assay type: in vivo; settings: versus placebo
# Experimental: In a second clinical study in humans, the effect(s) of intranasal oxytocin therapy on alcohol self-administration are determined in a population of alcohol-dependent adults and in a population of non-dependent problem drinkers.
# At least forty male and female adults are recruited from the community to the Brain and Mind Research Institute (BMRI) to participate in a laboratory based investigation looking at the impact of oxytocin on alcohol craving. Participants have a current diagnosis of alcohol dependence according to the Diagnostic and Statistical Manual of Mental Disorders, Fourth Edition (DSM-IV) as determined by the Structured Clinical Interview for the DSM-IV (SCID-IV) or are non-dependent subjects scoring higher than 8 on AUDIT. Male and female participants are chronic hazardous drinkers consuming more than 20 (females) or 25 (males) standard drinks per week (i.e., females: more than 200 g alcohol per week; males more than 250 g alcohol per week), respectively, and have not been abstinent more than 3 days per week in the 30 days preceding commencement of the trial as determined by AUDIT.
# All subjects are tested for baseline SCID-IV, AUDIT, PDQ, 90-day TLFB, DASS-21, PANAS, AUQ, FTND, urine toxicology, plasma oxytocin and cortisol, liver function testing, heart rate (HR), blood pressure (BP), and ECG, and females are pregnancy-tested and their menstrual cycles determined, as described herein above for Study 2. Neuropsychological evaluations are also performed e.g., according to CANTAB. Additionally, subjects are subjected to attention bias assessment task testing, wherein attention biases to alcohol-related cues are determined using e.g., stroop and dot-probe methodology. Subjects also participate in a reward learning computer task, to assess motivation for their alcohol consumption. Based on their test results, subjects are selected for recruitment in the study.
# Recruited subjects are administered placebo or oxytocin intranasally (80 IU per day: 40 IU at 9:00 am and 40 IU at 9:00 pm) over a period of 7 days, following completion of baseline measurements. Subjects are instructed on self-administration procedures. Drug administration commences on the evening of the day of the clinical and medical interview and ceases on a morning one-week later, after 14 doses have been administered. Subjects are randomized to oxytocin-receiving or placebo-receiving groups, and the groups are stratified according to gender, age, and drinking behavior. Subjects are contacted by telephone daily to confirm medication compliance and determine adverse events.
# Subjects returning to the BMRI on the afternoon of the final day of testing are evaluated. Bloods for plasma oxytocin and cortisol levels are collected before commencement. A urine toxicology test and alcohol breathalyzer test are also performed, to determine whether subjects have been alcohol-free and drug-free at the time of testing. Subjects are tested according to DASS-21, PANAS, 7-day TLFB, and AUQ, and neuropsychological evaluations e.g., according to CANTAB are performed. Changes in mood, drinking behavior and neuropsychology are evaluated for both groups by comparison with baseline evaluations. Changes in smoking behavior are evaluated by FTND testing and comparison with baseline evaluations. HR and BP records over the period and at cessation are also determined and compared to baseline levels before commencement of therapy. […]
# [2] = test system: rats having established patterns of pathologically-high alcohol consumption; test: Beer and water consumption in the 2.5 hr after a single oxytocin injection in alcohol-dependent animals (Example 4, FIG. 8); assay type: in vivo, rat; settings: 2.5 hr following 1 mg/kg IP
# Experimental: FIG. 8 provides graphical representations showing total consumption (ml) of full strength beer (panel A) and water (panel B) in rats having established patterns of pathologically-high alcohol consumption over several months, in a 2.5 hr period following intraperitoneal (IP) injection with 1 mg/kg oxytocin (OXY, n=8) or saline vehicle (VEH, n=8). […] Alcohol consumption in animals treated with oxytocin was reduced in the short-term by about 25% to about 40% or about 50% or about 60%. In contrast, consumption of water was unchanged in animals receiving oxytocin or saline vehicle placebo.
# Alcohol-dependent animals were provided a single injection i/p of oxytocin (1 mg/kg body weight) and their alcohol consumption levels in the 2.5 hr period following therapy were determined.
# [3] = test system: P rats; test: Lickometer choice of Vodka Cruiser versus 3% sucrose after acute oxytocin in alcohol-exposed P rats (Example 1); assay type: in vivo, rat
# Text: P rats (8 female and 8 male P rats) were provided by Professor Andrew Lawrence at the Howard Florey Institute, Melbourne, Australia. The animals were of adolescent age (i.e., 28 days-old) on arrival at the animal house. Animals were housed in same-sex cages at a density of 3-4 rats per cage. Over the following 2 months, animals received intermittent exposure to various alcoholic beverages in their home cages e.g., white wine, red wine, beer, Vodka Cruiser, Bacardi Breezer, but were alcohol-free for the month preceding testing.
# Testing occurred in a lickometer apparatus. Rats were placed in a small metal cage where they have a choice of two tubes for supply of liquids, wherein the tube were designed such that every third lick at one tube delivered a small drop (0.07 ml) of 3% (w/v) sucrose solution, and every third lick at the other tube delivered a small amount of alcohol-containing beverage, in particular Vodka Cruiser (Raspberry Flavor), containing 5.0% (w/v) ethanol. Rats were exposed daily to 70 min sessions in the lickometer until their intake of sucrose and/or alcohol and preferences for these beverages had stabilized.
# One-half of the rats being tested were injected intra-peritoneally (I/P) with a single dosage of 0.3 mg/kg oxytocin, administered 10 min before their daily drinking session. The following day, these animals received a normal baseline test session with no further oxytocin dosing. The following day, one-half of the animals were administered I/P with 1 mg/kg oxytocin 10 min before the test session. Normal drinking sessions then continued for a further 4 days. During the same period, the other one-half of the rats were administered a placebo (vehicle) lacking oxytocin. Animals receiving the placebo were treated with oxytocin in exactly the same sequence as the treatment group, commencing one week after the start of testing. A final test to determine alcohol intake and alcohol preference was conducted after 55 days, to determine whether or not oxytocin induced lasting changes in drinking behavior.
# [4] = acute oxytocin 0.3 and 1 mg/kg I/P, 10 min before 70 min session
smiles,measurement,setting,value
CC[C@H](C)[C@@H]1NC(=O)[C@H](Cc2ccc(O)cc2)NC(=O)[C@@H](N)CSSC[C@@H](C(=O)N2CCC[C@H]2C(=O)N[C@@H](CC(C)C)C(=O)NCC(N)=O)NC(=O)[C@H](CC(N)=O)NC(=O)[C@H](CCC(N)=O)NC1=O [oxytocin],alcohol consumed,[1]; ad libitum drinking sessions,consume less alcohol
same,bias to alcohol-related cues,[1],lower bias
same,positive response to the alcohol primer,[1],lower levels of positive response
same,reward motivation for alcohol consumption,[1],reduced reward motivation
same,subjective craving for alcohol,[1],lower
same,consumption of water,[2],unchanged; also recorded: not affected
same,beer (alcohol) consumption,[2]; versus saline vehicle,significantly reduced beer consumption
same,duration of the reduction in alcohol preference and alcohol intake,"[3]; P rats, after 1 mg/kg oxytocin",7-8 weeks
same,intake of Vodka Cruiser (alcohol consumption),[3]; [4],significant reduction; also recorded: reduced their alcohol consumption significantly
same,intake of sucrose solution,[3]; [4],significant reduction
same,time intake of the alcoholic beverage remained suppressed,[3]; following oxytocin,at least 55 days
same,reduction of baseline alcohol intake,"[3]; male and female P rats, 2 days following treatment, FIG. 1",about 50%
same,"reduction in alcohol consumption, comparison between the sexes",[3]; male versus female P rats,comparable between the sexes
same,preference for alcohol (Vodka Cruiser versus 3% sucrose),[3]; treated male and female P rats,shift towards a preference for alcohol-free solution; also recorded: reduced preference for alcohol
